Assay results published in ChEMBL document CHEMBL1201862, “PubChem BioAssay data set” (2004).
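Tested at 5 concentrations; 48 h exposure; 96-well plates; endpoints linearly interpolated, else capped at highest concentration. Abbreviation: GI50, concentration required for 50% inhibition of growth.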 Active and inactive are the calls of the source. Rule as the data show it: active = GI50 up to about 1.1 µM and inactive = higher.

Columns and labels:
Experiment in all cases: NCI tumour cell line growth inhibition, 48 h
K562 = tested on: K562
MDA-MB-435 = tested on: MDA-MB-435
HCT-116 = tested on: HCT-116
BT-549 = tested on: BT-549
CAKI-1 = tested on: CAKI-1
MDA-MB-231 = tested on: MDA-MB-231
OVCAR-4 = tested on: OVCAR-4
TK-10 = tested on: TK-10
UACC-257 = tested on: UACC-257
OVCAR-3 = tested on: OVCAR-3
EKVX = tested on: EKVX
UACC-62 = tested on: UACC-62
HOP-62 = tested on: HOP-62
MDA-N = tested on: MDA-N
SN12C = tested on: SN12C
OVCAR-8 = tested on: OVCAR-8
SF-268 = tested on: SF-268
HOP-92 = tested on: HOP-92
HT-29 = tested on: HT-29
OVCAR-5 = tested on: OVCAR-5
T47D = tested on: T47D
A549 = tested on: A549
UO-31 = tested on: UO-31
COLO 205 = tested on: COLO 205
SK-MEL-2 = tested on: SK-MEL-2
MOLT-4 = tested on: MOLT-4
HCT-15 = tested on: HCT-15
M14 = tested on: M14
ACHN = tested on: ACHN
MCF7 = tested on: MCF7
Hs-578T = tested on: Hs-578T
786-0 = tested on: 786-0
DU-145 = tested on: DU-145
PC-3 = tested on: PC-3
LOX IMVI = tested on: LOX IMVI
KM12 = tested on: KM12
SF-295 = tested on: SF-295
Malme-3M = tested on: Malme-3M
NCI-H522 = tested on: NCI-H522
RXF 393 = tested on: RXF 393
NCI/ADR-RES = tested on: NCI/ADR-RES
NCI-H23 = tested on: NCI-H23
SK-MEL-5 = tested on: SK-MEL-5
IGROV-1 = tested on: IGROV-1
SNB-19 = tested on: SNB-19
SK-OV-3 = tested on: SK-OV-3
A498 = tested on: A498
NCI-H226 = tested on: NCI-H226
U-251 = tested on: U-251
RPMI-8226 = tested on: RPMI-8226
HCC 2998 = tested on: HCC 2998
SF-539 = tested on: SF-539
HL-60 = tested on: HL-60
NCI-H460 = tested on: NCI-H460
CCRF-CEM = tested on: CCRF-CEM
SW-620 = tested on: SW-620
SK-MEL-28 = tested on: SK-MEL-28
SNB-75 = tested on: SNB-75

COc1c(-c2nc3ccc(N4CCN(C)CC4)nc3[nH]2)cc(OC)c2c1nc(COC(C)=O)n2C
GI50 (K562): > 100 µM (inactive)
GI50 (MDA-MB-435): 71.8 µM (inactive)
GI50 (HCT-116): 86.3 µM (inactive)
GI50 (BT-549): > 100 µM (inactive)
GI50 (CAKI-1): > 100 µM (inactive)
GI50 (MDA-MB-231): 51.3 µM (inactive)
GI50 (OVCAR-4): 89.9 µM (inactive)
GI50 (TK-10): < 0.01 µM (active)
GI50 (UACC-257): 45.3 µM (inactive)
GI50 (OVCAR-3): > 100 µM (inactive)
GI50 (EKVX): > 100 µM (inactive)
GI50 (UACC-62): > 100 µM (inactive)
GI50 (HOP-62): > 100 µM (inactive)
GI50 (MDA-N): > 100 µM (inactive)
GI50 (SN12C): > 100 µM (inactive)
GI50 (OVCAR-8): > 100 µM (inactive)
GI50 (SF-268): > 100 µM (inactive)
GI50 (HOP-92): > 100 µM (inactive)
GI50 (HT-29): 56.1 µM (inactive)
GI50 (OVCAR-5): > 100 µM (inactive)
GI50 (T47D): > 100 µM (inactive)
GI50 (A549): > 100 µM (inactive)
GI50 (UO-31): > 100 µM (inactive)
GI50 (COLO 205): 92.7 µM (inactive)
GI50 (SK-MEL-2): 33 µM (inactive)
GI50 (MOLT-4): > 100 µM (inactive)
GI50 (HCT-15): > 100 µM
GI50 (M14): > 100 µM (inactive)
GI50 (ACHN): > 100 µM (inactive)
GI50 (MCF7): 65.3 µM (inactive)
GI50 (Hs-578T): > 100 µM (inactive)
GI50 (786-0): > 100 µM (inactive)
GI50 (DU-145): 22.6 µM (inactive)
GI50 (PC-3): 94.8 µM (inactive)
GI50 (LOX IMVI): > 100 µM (inactive)
GI50 (KM12): 39.4 µM (inactive)
GI50 (SF-295): > 100 µM (inactive)
GI50 (Malme-3M): > 100 µM (inactive)
GI50 (NCI-H522): > 100 µM (inactive)
GI50 (RXF 393): 19 µM (inactive)
GI50 (NCI/ADR-RES): > 100 µM (inactive)
GI50 (NCI-H23): > 100 µM (inactive)
GI50 (SK-MEL-5): > 100 µM (inactive)
GI50 (IGROV-1): > 100 µM (inactive)
GI50 (SNB-19): 90.2 µM (inactive)
GI50 (SK-OV-3): > 100 µM (inactive)
GI50 (A498): > 100 µM (inactive)
GI50 (NCI-H226): > 100 µM (inactive)
GI50 (U-251): 97.1 µM (inactive)

CCN1C(=O)C(=C/C=C/c2ccc(OC)cc2)C(=O)N(CC)C1=S
GI50 (K562): 31.3 µM (inactive)
GI50 (RPMI-8226): 33.6 µM (inactive)
GI50 (MDA-MB-435): 21.6 µM (inactive)
GI50 (HCT-116): 17.8 µM (inactive)
GI50 (BT-549): 26.7 µM (inactive)
GI50 (CAKI-1): 21.7 µM (inactive)
GI50 (MDA-MB-231): 19.8 µM (inactive)
GI50 (OVCAR-4): 95.5 µM (inactive)
GI50 (TK-10): 17.5 µM (inactive)
GI50 (UACC-257): 16 µM (inactive)
GI50 (OVCAR-3): 16.6 µM (inactive)
GI50 (EKVX): 24 µM (inactive)
GI50 (UACC-62): 16.7 µM (inactive)
GI50 (HOP-62): 18.6 µM (inactive)
GI50 (MDA-N): 18.2 µM (inactive)
GI50 (HCC 2998): 53.2 µM (inactive)
GI50 (SN12C): 18.2 µM (inactive)
GI50 (OVCAR-8): 21.4 µM (inactive)
GI50 (SF-268): 24.6 µM (inactive)
GI50 (HOP-92): 14.2 µM (inactive)
GI50 (HT-29): 22.6 µM (inactive)
GI50 (OVCAR-5): > 100 µM (inactive)
GI50 (T47D): > 100 µM (inactive)
GI50 (A549): > 100 µM (inactive)
GI50 (SF-539): 19.6 µM (inactive)
GI50 (UO-31): 40.3 µM (inactive)
GI50 (COLO 205): 18.5 µM (inactive)
GI50 (SK-MEL-2): > 100 µM (inactive)
GI50 (MOLT-4): 25.7 µM (inactive)
GI50 (HCT-15): 17.5 µM
GI50 (HL-60): 7.5 µM (inactive)
GI50 (M14): 22.1 µM (inactive)
GI50 (ACHN): 17.7 µM (inactive)
GI50 (MCF7): 33.8 µM (inactive)
GI50 (Hs-578T): 15.7 µM (inactive)
GI50 (786-0): 17.6 µM (inactive)
GI50 (DU-145): 19.1 µM (inactive)
GI50 (PC-3): 19.4 µM (inactive)
GI50 (LOX IMVI): 17.3 µM (inactive)
GI50 (KM12): 20.3 µM (inactive)
GI50 (SF-295): 60.4 µM (inactive)
GI50 (NCI-H460): 30.7 µM (inactive)
GI50 (Malme-3M): 12.5 µM (inactive)
GI50 (RXF 393): 17.2 µM (inactive)
GI50 (NCI/ADR-RES): 13.8 µM (inactive)
GI50 (NCI-H23): > 100 µM (inactive)
GI50 (SK-MEL-5): 26.5 µM (inactive)
GI50 (IGROV-1): 16.3 µM (inactive)
GI50 (SNB-19): 37.9 µM (inactive)
GI50 (SK-OV-3): 23.1 µM (inactive)
GI50 (CCRF-CEM): 20.6 µM (inactive)
GI50 (NCI-H226): 32.9 µM (inactive)
GI50 (U-251): 18.9 µM (inactive)
GI50 (SW-620): 20.8 µM (inactive)

NNS(=O)(=O)c1ccc(/C=C2\NC(=O)NC2=O)cc1
GI50 (K562): > 100 µM (inactive)
GI50 (RPMI-8226): > 100 µM (inactive)
GI50 (MDA-MB-435): > 100 µM (inactive)
GI50 (HCT-116): > 100 µM (inactive)
GI50 (BT-549): > 100 µM (inactive)
GI50 (CAKI-1): > 100 µM (inactive)
GI50 (MDA-MB-231): > 100 µM (inactive)
GI50 (OVCAR-4): > 100 µM (inactive)
GI50 (TK-10): > 100 µM (inactive)
GI50 (UACC-257): > 100 µM (inactive)
GI50 (OVCAR-3): > 100 µM (inactive)
GI50 (EKVX): > 100 µM (inactive)
GI50 (SK-MEL-28): > 100 µM (inactive)
GI50 (UACC-62): > 100 µM (inactive)
GI50 (HOP-62): > 100 µM (inactive)
GI50 (MDA-N): > 100 µM (inactive)
GI50 (HCC 2998): > 100 µM (inactive)
GI50 (SN12C): > 100 µM (inactive)
GI50 (OVCAR-8): > 100 µM (inactive)
GI50 (SF-268): > 100 µM (inactive)
GI50 (HOP-92): > 100 µM (inactive)
GI50 (HT-29): > 100 µM (inactive)
GI50 (OVCAR-5): 58.1 µM (inactive)
GI50 (SNB-75): > 100 µM (inactive)
GI50 (T47D): > 100 µM (inactive)
GI50 (A549): > 100 µM (inactive)
GI50 (UO-31): > 100 µM (inactive)
GI50 (COLO 205): > 100 µM (inactive)
GI50 (SK-MEL-2): 37.9 µM (inactive)
GI50 (MOLT-4): > 100 µM (inactive)
GI50 (HCT-15): > 100 µM
GI50 (HL-60): > 100 µM (inactive)
GI50 (M14): > 100 µM (inactive)
GI50 (ACHN): > 100 µM (inactive)
GI50 (MCF7): > 100 µM (inactive)
GI50 (Hs-578T): > 100 µM (inactive)
GI50 (786-0): > 100 µM (inactive)
GI50 (DU-145): > 100 µM (inactive)
GI50 (PC-3): > 100 µM (inactive)
GI50 (LOX IMVI): > 100 µM (inactive)
GI50 (KM12): > 100 µM (inactive)
GI50 (SF-295): > 100 µM (inactive)
GI50 (Malme-3M): > 100 µM (inactive)
GI50 (NCI/ADR-RES): > 100 µM (inactive)
GI50 (NCI-H23): > 100 µM (inactive)
GI50 (SK-MEL-5): > 100 µM (inactive)
GI50 (IGROV-1): > 100 µM (inactive)
GI50 (SNB-19): > 100 µM (inactive)
GI50 (SK-OV-3): > 100 µM (inactive)
GI50 (A498): > 100 µM (inactive)
GI50 (CCRF-CEM): > 100 µM (inactive)
GI50 (NCI-H226): > 100 µM (inactive)
GI50 (U-251): > 100 µM (inactive)
GI50 (SW-620): > 100 µM (inactive)
